# Measured values as given in PubChem BioAssay (NCI).
#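 Exposure lasted 48 hours, with cells grown in 96-well plates and compounds tested at five concentrations. GI50 is the concentration that inhibits growth by half. At the TGI there is no net growth.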
# Columns and labels:
# Assay in all cases: DTP human tumour cell line panel, 48 h
# SNB-19 CNS = tested on: SNB-19 CNS
# U251 CNS = tested on: U251 CNS
# OVCAR-5 ovarian = tested on: OVCAR-5 ovarian
# MALME-3M melanoma = tested on: MALME-3M melanoma
# ACHN renal = tested on: ACHN renal
# SR leukemia = tested on: SR leukemia
# NCI/ADR-RES ovarian = tested on: NCI/ADR-RES ovarian
# NCI-H226 lung = tested on: NCI-H226 lung
# A498 renal = tested on: A498 renal
# SN12C renal = tested on: SN12C renal
# UACC-257 melanoma = tested on: UACC-257 melanoma
# MCF7 breast = tested on: MCF7 breast
# SF-268 CNS = tested on: SF-268 CNS
# M14 melanoma = tested on: M14 melanoma
# MDA-MB-231 breast = tested on: MDA-MB-231 breast
# SW-620 colon = tested on: SW-620 colon
# HL-60(TB) leukemia = tested on: HL-60(TB) leukemia
# SK-MEL-2 melanoma = tested on: SK-MEL-2 melanoma
# UACC-62 melanoma = tested on: UACC-62 melanoma
# PC-3 prostate = tested on: PC-3 prostate
# LOX IMVI melanoma = tested on: LOX IMVI melanoma
# T-47D breast = tested on: T-47D breast
# OVCAR-4 ovarian = tested on: OVCAR-4 ovarian
# HT29 colon = tested on: HT29 colon
# HOP-92 NSCLC = tested on: HOP-92 NSCLC
# NCI-H23 lung = tested on: NCI-H23 lung
# TK-10 renal = tested on: TK-10 renal
# DU-145 prostate = tested on: DU-145 prostate
# MOLT-4 leukemia = tested on: MOLT-4 leukemia
# SK-OV-3 ovarian = tested on: SK-OV-3 ovarian
# SNB-75 CNS = tested on: SNB-75 CNS
# SK-MEL-28 melanoma = tested on: SK-MEL-28 melanoma
# BT-549 breast = tested on: BT-549 breast
# SF-539 CNS = tested on: SF-539 CNS
# HS 578T breast = tested on: HS 578T breast
# HOP-62 NSCLC = tested on: HOP-62 NSCLC
# A549 NSCLC = tested on: A549 NSCLC
# SK-MEL-5 melanoma = tested on: SK-MEL-5 melanoma
# HCT-15 colon = tested on: HCT-15 colon
# HCC-2998 colon = tested on: HCC-2998 colon
# RPMI-8226 leukemia = tested on: RPMI-8226 leukemia
# EKVX NSCLC = tested on: EKVX NSCLC
# HCT-116 colon = tested on: HCT-116 colon
# OVCAR-8 ovarian = tested on: OVCAR-8 ovarian
# RXF 393 renal = tested on: RXF 393 renal
# COLO 205 colon = tested on: COLO 205 colon
# CCRF-CEM leukemia = tested on: CCRF-CEM leukemia
# NCI-H460 lung = tested on: NCI-H460 lung
# KM12 colon = tested on: KM12 colon
# 786-0 renal = tested on: 786-0 renal
# SF-295 CNS = tested on: SF-295 CNS
# K-562 leukemia = tested on: K-562 leukemia
# IGROV1 ovarian = tested on: IGROV1 ovarian
smiles,measurement,setting,value
Cc1cc(NCCCCCCNc2cc(C)nc3ccc(N)cc23)c2cc(N)ccc2n1,TGI,SNB-19 CNS,> 100000 nM
same,TGI,U251 CNS,> 100000 nM
O=C(c1ccc2ccccc2c1)c1c(C(F)(F)F)n([O-])c2ccc(F)cc2[n+]1=O,GI50,OVCAR-5 ovarian,1780 nM
same,TGI,OVCAR-5 ovarian,3180 nM
same,GI50,MALME-3M melanoma,397 nM
same,TGI,MALME-3M melanoma,2300 nM
same,GI50,ACHN renal,1680 nM
same,TGI,ACHN renal,3040 nM
same,GI50,SR leukemia,277 nM
same,TGI,SR leukemia,1490 nM
same,GI50,NCI/ADR-RES ovarian,2100 nM
same,TGI,NCI/ADR-RES ovarian,4570 nM
same,GI50,NCI-H226 lung,1960 nM
same,TGI,NCI-H226 lung,3970 nM
same,GI50,A498 renal,6900 nM
same,TGI,A498 renal,21000 nM
same,GI50,SN12C renal,1290 nM
same,TGI,SN12C renal,2740 nM
same,GI50,UACC-257 melanoma,1740 nM
same,TGI,UACC-257 melanoma,3200 nM
same,GI50,SNB-19 CNS,1510 nM
same,TGI,SNB-19 CNS,3020 nM
same,GI50,MCF7 breast,1430 nM
same,TGI,MCF7 breast,3310 nM
same,GI50,SF-268 CNS,1730 nM
same,TGI,SF-268 CNS,3370 nM
same,GI50,M14 melanoma,1670 nM
same,TGI,M14 melanoma,3110 nM
same,GI50,MDA-MB-231 breast,1480 nM
same,TGI,MDA-MB-231 breast,3020 nM
same,GI50,SW-620 colon,1500 nM
same,TGI,SW-620 colon,3200 nM
same,GI50,HL-60(TB) leukemia,266 nM
same,TGI,HL-60(TB) leukemia,2230 nM
same,GI50,SK-MEL-2 melanoma,1200 nM
same,TGI,SK-MEL-2 melanoma,2820 nM
same,GI50,UACC-62 melanoma,1600 nM
same,TGI,UACC-62 melanoma,2950 nM
same,GI50,PC-3 prostate,1550 nM
same,TGI,PC-3 prostate,3390 nM
same,GI50,LOX IMVI melanoma,394 nM
same,TGI,LOX IMVI melanoma,1660 nM
same,GI50,T-47D breast,1560 nM
same,TGI,T-47D breast,4050 nM
same,GI50,OVCAR-4 ovarian,1670 nM
same,TGI,OVCAR-4 ovarian,3220 nM
same,GI50,HT29 colon,1360 nM
same,TGI,HT29 colon,3020 nM
same,GI50,U251 CNS,1470 nM
same,TGI,U251 CNS,2810 nM
same,GI50,HOP-92 NSCLC,1210 nM
same,TGI,HOP-92 NSCLC,2950 nM
same,GI50,NCI-H23 lung,574 nM
same,TGI,NCI-H23 lung,1910 nM
same,GI50,TK-10 renal,1580 nM
same,TGI,TK-10 renal,3020 nM
same,GI50,DU-145 prostate,1680 nM
same,TGI,DU-145 prostate,3120 nM
same,GI50,MOLT-4 leukemia,393 nM
same,TGI,MOLT-4 leukemia,1970 nM
same,GI50,SK-OV-3 ovarian,2160 nM
same,TGI,SK-OV-3 ovarian,5050 nM
same,GI50,SNB-75 CNS,1470 nM
same,TGI,SNB-75 CNS,2820 nM
same,GI50,SK-MEL-28 melanoma,1680 nM
same,TGI,SK-MEL-28 melanoma,3180 nM
same,GI50,BT-549 breast,1750 nM
same,TGI,BT-549 breast,3220 nM
same,GI50,SF-539 CNS,1880 nM
same,TGI,SF-539 CNS,3320 nM
same,GI50,HS 578T breast,1980 nM
same,TGI,HS 578T breast,4770 nM
same,GI50,HOP-62 NSCLC,1910 nM
same,TGI,HOP-62 NSCLC,3390 nM
same,GI50,A549 NSCLC,1800 nM
same,TGI,A549 NSCLC,3410 nM
same,GI50,SK-MEL-5 melanoma,1750 nM
same,TGI,SK-MEL-5 melanoma,3160 nM
same,GI50,HCT-15 colon,354 nM
same,TGI,HCT-15 colon,1260 nM
same,GI50,HCC-2998 colon,892 nM
same,TGI,HCC-2998 colon,2120 nM
same,GI50,RPMI-8226 leukemia,997 nM
same,TGI,RPMI-8226 leukemia,3930 nM
same,GI50,EKVX NSCLC,1800 nM
same,TGI,EKVX NSCLC,3350 nM
same,GI50,HCT-116 colon,1500 nM
same,TGI,HCT-116 colon,2970 nM
same,GI50,OVCAR-8 ovarian,324 nM
same,TGI,OVCAR-8 ovarian,1210 nM
same,GI50,RXF 393 renal,283 nM
same,TGI,RXF 393 renal,958 nM
same,GI50,COLO 205 colon,188 nM
same,TGI,COLO 205 colon,425 nM
same,GI50,CCRF-CEM leukemia,1600 nM
same,TGI,CCRF-CEM leukemia,5260 nM
same,GI50,NCI-H460 lung,1830 nM
same,TGI,NCI-H460 lung,3680 nM
same,GI50,KM12 colon,673 nM
same,TGI,KM12 colon,2460 nM
same,GI50,786-0 renal,1570 nM
same,TGI,786-0 renal,3010 nM
O=C(Nc1nc2ccccc2s1)c1cc(-c2ccc(F)cc2)n2nc(-c3ccccc3)cc2n1,GI50,MALME-3M melanoma,3740 nM
same,TGI,MALME-3M melanoma,> 100000 nM
same,GI50,SR leukemia,3930 nM
same,TGI,SR leukemia,12800 nM
same,GI50,NCI-H226 lung,6310 nM
same,TGI,NCI-H226 lung,> 100000 nM
same,GI50,A498 renal,1860 nM
same,TGI,A498 renal,5490 nM
same,GI50,SN12C renal,6490 nM
same,TGI,SN12C renal,> 100000 nM
same,GI50,SNB-19 CNS,5210 nM
same,TGI,SNB-19 CNS,> 100000 nM
same,GI50,MCF7 breast,5290 nM
same,TGI,MCF7 breast,> 100000 nM
same,GI50,SF-268 CNS,3890 nM
same,TGI,SF-268 CNS,> 100000 nM
same,GI50,M14 melanoma,3130 nM
same,TGI,M14 melanoma,> 100000 nM
same,GI50,MDA-MB-231 breast,2360 nM
same,TGI,MDA-MB-231 breast,5610 nM
same,GI50,HL-60(TB) leukemia,> 100000 nM
same,TGI,HL-60(TB) leukemia,> 100000 nM
same,GI50,SK-MEL-2 melanoma,3150 nM
same,TGI,SK-MEL-2 melanoma,8970 nM
same,GI50,UACC-62 melanoma,3790 nM
same,TGI,UACC-62 melanoma,> 100000 nM
same,GI50,SF-295 CNS,4110 nM
same,TGI,SF-295 CNS,> 100000 nM
same,GI50,T-47D breast,3340 nM
same,TGI,T-47D breast,> 100000 nM
same,GI50,HOP-92 NSCLC,1690 nM
same,TGI,HOP-92 NSCLC,5060 nM
same,GI50,NCI-H23 lung,2810 nM
same,TGI,NCI-H23 lung,> 100000 nM
same,GI50,TK-10 renal,2450 nM
same,TGI,TK-10 renal,5540 nM
same,GI50,DU-145 prostate,4950 nM
same,TGI,DU-145 prostate,> 100000 nM
same,GI50,MOLT-4 leukemia,21000 nM
same,TGI,MOLT-4 leukemia,71700 nM
same,GI50,SK-OV-3 ovarian,2300 nM
same,TGI,SK-OV-3 ovarian,5560 nM
same,GI50,SNB-75 CNS,1750 nM
same,TGI,SNB-75 CNS,5820 nM
same,GI50,BT-549 breast,2050 nM
same,TGI,BT-549 breast,6500 nM
same,GI50,K-562 leukemia,4250 nM
same,TGI,K-562 leukemia,15300 nM
same,GI50,HS 578T breast,2290 nM
same,TGI,HS 578T breast,8640 nM
same,GI50,HOP-62 NSCLC,2240 nM
same,TGI,HOP-62 NSCLC,7020 nM
same,GI50,HCC-2998 colon,> 100000 nM
same,TGI,HCC-2998 colon,> 100000 nM
same,GI50,RPMI-8226 leukemia,5590 nM
same,TGI,RPMI-8226 leukemia,> 100000 nM
same,GI50,IGROV1 ovarian,4360 nM
same,TGI,IGROV1 ovarian,> 100000 nM
same,GI50,EKVX NSCLC,6690 nM
same,TGI,EKVX NSCLC,> 100000 nM
same,GI50,HCT-116 colon,2710 nM
same,TGI,HCT-116 colon,> 100000 nM
same,GI50,RXF 393 renal,2530 nM
same,TGI,RXF 393 renal,6430 nM
same,GI50,CCRF-CEM leukemia,1870 nM
same,TGI,CCRF-CEM leukemia,4520 nM
same,GI50,786-0 renal,2120 nM
same,TGI,786-0 renal,5100 nM
